Measured values published in ChEMBL document CHEMBL4840332, “Pd-Catalyzed Direct Diversification of Natural Anti-Alzheimer's Disease Drug: Synthesis and Biological Evaluation of N-Aryl Huperzine A Analogues” (J Nat Prod, 2021).
Active and inactive are the calls of the source. The rule behind the calls is not given here.

Columns and labels:
SH-SY5Y = experiment: Neuroprotective activity against H2O2-induced oxidative stress in human SH-SY5Y cells assessed as cell viability at 50 uM pretreated for 1 hr followed by H2O2 addition and measured after 4 hrs by MTT assay relative to control; assay type: functional; conditions: time 5 hrs, read-out: Activity
[1] = target: Acetylcholinesterase (Electrophorus electricus) (UniProt O42275); experiment: Inhibition of electric eel AChE at 100 uM using acetylthiocholine chloride as a substrate incubated for 20 mins followed by substrate addition and measured after 20 mins by Ellman's method; conditions: time 40.0 min
Sequence of Acetylcholinesterase (Electrophorus electricus) (O42275 24-633 limits assumed): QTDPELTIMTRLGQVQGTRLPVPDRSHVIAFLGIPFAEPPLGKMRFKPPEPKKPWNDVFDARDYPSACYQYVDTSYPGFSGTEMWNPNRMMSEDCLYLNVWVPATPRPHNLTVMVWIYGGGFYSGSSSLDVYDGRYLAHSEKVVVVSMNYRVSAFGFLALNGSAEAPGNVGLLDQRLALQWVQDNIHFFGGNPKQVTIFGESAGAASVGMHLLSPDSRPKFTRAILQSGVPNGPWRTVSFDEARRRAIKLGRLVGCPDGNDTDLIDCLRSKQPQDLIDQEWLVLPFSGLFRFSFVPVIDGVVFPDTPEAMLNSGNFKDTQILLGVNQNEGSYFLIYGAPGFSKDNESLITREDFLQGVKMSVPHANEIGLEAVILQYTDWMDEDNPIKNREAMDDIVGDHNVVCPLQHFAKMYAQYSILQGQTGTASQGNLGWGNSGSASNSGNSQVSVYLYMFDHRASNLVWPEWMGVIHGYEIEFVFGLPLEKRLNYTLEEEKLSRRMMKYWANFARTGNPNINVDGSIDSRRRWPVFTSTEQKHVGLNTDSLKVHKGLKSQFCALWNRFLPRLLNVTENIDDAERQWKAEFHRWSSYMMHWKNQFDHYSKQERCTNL

[2] = target: Acetylcholinesterase (Electrophorus electricus) (UniProt O42275); experiment: Inhibition of electric eel AChE at 100 uM using acetylthiocholine chloride as a substrate incubated for 20 mins followed by substrate addition and measured after 20 mins by Ellman's method relative to control; conditions: time 40.0 min
Acetylcholinesterase = Acetylcholinesterase (Electrophorus electricus, UniProt O42275); experiment: Inhibition of electric eel AChE using acetylthiocholine chloride as a substrate incubated for 20 mins followed by substrate addition and measured after 20 mins by Ellman's method
Sequence of Acetylcholinesterase (O42275 whole entry): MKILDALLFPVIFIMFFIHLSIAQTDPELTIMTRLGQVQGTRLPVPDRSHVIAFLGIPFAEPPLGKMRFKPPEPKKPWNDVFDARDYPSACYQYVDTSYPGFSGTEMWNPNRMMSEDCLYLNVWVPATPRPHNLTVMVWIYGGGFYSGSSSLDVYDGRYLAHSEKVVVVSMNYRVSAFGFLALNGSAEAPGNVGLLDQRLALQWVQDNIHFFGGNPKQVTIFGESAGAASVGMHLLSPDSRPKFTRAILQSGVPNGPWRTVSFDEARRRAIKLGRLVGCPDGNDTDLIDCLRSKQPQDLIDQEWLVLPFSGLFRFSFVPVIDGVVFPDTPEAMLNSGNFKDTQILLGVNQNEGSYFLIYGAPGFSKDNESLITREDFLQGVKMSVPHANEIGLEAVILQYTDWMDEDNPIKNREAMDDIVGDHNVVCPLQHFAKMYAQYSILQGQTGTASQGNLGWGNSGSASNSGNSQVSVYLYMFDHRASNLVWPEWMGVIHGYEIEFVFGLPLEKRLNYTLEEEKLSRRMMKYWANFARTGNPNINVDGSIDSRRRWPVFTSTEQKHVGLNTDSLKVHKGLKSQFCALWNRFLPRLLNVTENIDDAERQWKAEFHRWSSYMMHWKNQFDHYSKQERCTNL

[3] = target: Acetylcholinesterase (Electrophorus electricus) (UniProt O42275); experiment: Potency index, ratio of HPA IC50 to test compound IC50 for inhibition of electric eel AChE using acetylthiocholine chloride as a substrate incubated for 20 mins followed by substrate addition and measured after 20 mins by Ellman's method; conditions: time 40.0 min

| Compound | viability at 50 µM (SH-SY5Y) | inhibition [2] | IC50 (Acetylcholinesterase) | further results |
| --- | --- | --- | --- | --- |
| C/C=C1\[C@H]2C=C(C)C[C@]1(Nc1cc(C)cc(C)c1)c1ccc(=O)[nH]c1C2 | > 100% |  |  |  |
| C/C=C1\[C@H]2C=C(C)C[C@]1(Nc1cc(C)ccn1)c1ccc(=O)[nH]c1C2 | > 100% |  |  | inhibition [1]: Active |
| C/C=C1\[C@H]2C=C(C)C[C@]1(Nc1ccc(OC)cn1)c1ccc(=O)[nH]c1C2 | 144% | 106% | 1.5 µM | Ratio IC50 [3]: 7.6 |
| C/C=C1\[C@H]2C=C(C)C[C@]1(Nc1ccc(OCC)cc1)c1ccc(=O)[nH]c1C2 | > 100% |  |  |  |
| C/C=C1\[C@H]2C=C(C)C[C@]1(Nc1cccc(C)c1)c1ccc(=O)[nH]c1C2 | > 100% | > 92% | 47 µM |  |
| C/C=C1\[C@H]2C=C(C)C[C@]1(Nc1cccc(F)c1)c1ccc(=O)[nH]c1C2 |  |  |  | inhibition [1]: Active |
| C/C=C1\[C@H]2C=C(C)C[C@]1(Nc1c(C)cc(OC)cc1C)c1ccc(=O)[nH]c1C2 | > 100% | 96% | 3.9 µM |  |
| C/C=C1\[C@H]2C=C(C)C[C@]1(Nc1ccc(Cl)cc1)c1ccc(=O)[nH]c1C2 |  |  |  | inhibition [1]: Active |
| C/C=C1\[C@H]2C=C(C)C[C@]1(Nc1ncc(C)cc1C)c1ccc(=O)[nH]c1C2 | > 100% | > 92% | 43 µM |  |
| C/C=C1\[C@H]2C=C(C)C[C@]1(Nc1cccc3ncccc13)c1ccc(=O)[nH]c1C2 | > 100% |  |  |  |
| C/C=C1\[C@H]2C=C(C)C[C@]1(Nc1ncccc1OC)c1ccc(=O)[nH]c1C2 |  |  |  | inhibition [1]: Active |
| C/C=C1\[C@H]2C=C(C)C[C@]1(Nc1ccc(C)cc1)c1ccc(=O)[nH]c1C2 | > 100% |  |  |  |
| C/C=C1\[C@H]2C=C(C)C[C@]1(Nc1cccc(OC)c1)c1ccc(=O)[nH]c1C2 |  |  |  | inhibition [1]: Active |
| C/C=C1\[C@H]2C=C(C)C[C@]1(Nc1ccc3c(c1)OCO3)c1ccc(=O)[nH]c1C2 | > 100% |  |  |  |
| C/C=C1\[C@H]2C=C(C)C[C@]1(Nc1ccc(F)cc1)c1ccc(=O)[nH]c1C2 |  | > 92% | 4.5 µM |  |
| C/C=C1\[C@H]2C=C(C)C[C@]1(Nc1cccc(C)n1)c1ccc(=O)[nH]c1C2 | > 100% |  |  |  |
| C/C=C1\[C@H]2C=C(C)C[C@]1(Nc1ncccc1C)c1ccc(=O)[nH]c1C2 |  | > 92% | 40 µM |  |
